{
  "source": "patent US11162117B2",
  "about": "“Whole-cell catalytic system and applications thereof” (National Taiwan University, priority 2018, dated 2021)",
  "type_in_all_cases": "cell-based, Marinobacter aquaeoli VT8",
  "key": {"[1]": {"system": "AlkR protein", "experiment": "Alkane induction assay: mRFP reporter in E. coli JM109 carrying psb4K5-alkR-mRFP plasmid (flow cytometry)", "protocol": "(§1) E. coli JM109 carrying the psb4K5-alkR-mRFP plasmid was cultured overnight at 37° C. and 125-150 rpm in 3 mL of LB medium containing 50 μg/mL kanamycin. The overnight culture was diluted 1000-fold in LB medium in a 100 mL Hinton's flask and cultured at 37° C. To induce the expression of red fluorescent protein, 1% (v/v) of the various indicated hydrocarbons was added to the culture when the absorbance at 600 nm (O.D.600) reached about 0.6. At 0, 3, 6, 9, and 12 hours after the induction, 500 μL of the abovementioned bacterial culture was collected and centrifuged to obtain a cell pellet, which was washed twice and resuspended with phosphate buffer saline (PBS). Flow cytometry (BD FACSCanto II) was used to measure the mean fluorescence intensity of the cells and the distribution of cells with different fluorescence intensities (an excitation wavelength at 532 nm and an emission wavelength at 588 nm). For the E. coli JM109 that additionally carrying an expression vector of an alkane transporter, rhamnose was first added to the bacterial culture at an O.D.600 of about 0.6, and 1% (v/v) of the various indicated hydrocarbons was added three hours thereafter.\nFirst, E. coli JM109 was transformed with the psb4K5-alkR-mRFP plasmid shown in FIG. 1, which was a reporter plasmid including the alkR gene, the gene encoding the red fluorescent protein, and the promoter thereof. […] At 0, 3, 6, 9, and 12 hours after the induction, the mean fluorescence intensity and fluorescence distribution of E. coli cells were measured by flow cytometry. […]\nIt was also studied whether the medium-chain or long-chain alkane terminal oxidation products would inhibit the activating effect of the AlkR protein on gene expression. In the alkane induction assay using n-dodecane as the inducer, 0.1% (v/v) or 1% (v/v) 1-dodecanol was additionally added to the E. coli culture, and the mean fluorescence intensity of the E. coli cells was measured at 6 and 12 hours after the induction, with the results shown in FIG. 10."}, "[2]": {"system": "CYP153A operon", "experiment": "CYP153A expression in recombinant E. coli carrying pBBR1-CYPLR plasmid (SDS-PAGE, CO difference spectroscopy)", "settings": "1% (v/v) methyl laurate, pBBR1-CYPLR vs pBBR1-alkR plasmid", "protocol": "E. coli JM109 carrying the pBBR1-CYPLR plasmid or the pBBR1-alkR plasmid was overnight cultured at 37° C. and 125-150 rpm in 3 mL of LB medium containing 50 μg/mL kanamycin. The overnight culture was diluted 1000-fold in 3 mL of LB medium containing 50 μg/mL kanamycin and cultured at 37° C. 1% (v/v) methyl laurate was added to the culture at an O.D.600 of about 0.6 and a further incubation at 30° C. was carried out for 12 hours. The cell pellet obtained by centrifuging the abovementioned bacterial culture was washed and resuspended with PBS, and then subjected to protein expression analysis by sodium dodecyl sulfate polyacrylamide gel electrophoresis (SDS-PAGE) or carbon monoxide (CO) difference spectroscopy.\nSamples of bacterial cells were mixed with sample buffer (50 mM Tris-HCl, pH 6.8, 100 mM dithiothreitol (DTT), 2% SDS, 0.1% bromophenol blue, 10% glycerol) and boiled for 10 minutes. […]\nIt was studied whether CYP153A expression in the recombinant E. coli carrying the reconstructed CYP153A operon from M. aquaeoli VT8 would be induced by medium-chain or long-chain fatty acid methyl esters. […] At 12 hours after the induction, the expression of CYP153A was analyzed by SDS-PAGE, and the protein molecular size and activity of the cytochrome P450 consisting of CYP153A, ferredoxin, and ferredoxin reductase were verified by carbon monoxide difference spectroscopy."}, "[3]": {"system": "AlkR protein", "experiment": "Alkane induction assay in E. coli JM109 carrying psb4K5-alkR-mRFP and rhamnose-inducible psb3C5-rha-weak alkL (or mock psb3C5-rha) plasmid", "settings": "for expression of red fluorescent protein (mean fluorescence intensity) compared to no rhamnose addition: AlkL plasmid, 0.01% (w/v) rhamnose then 1% (v/v) n-tetradecane, 6 h after induction, FIG. 14", "protocol": "as §1\nThis characteristic might prevent the recombinant microorganism including the CYP153A operon from being induced by the medium-chain or long-chain alkanes or medium-chain or long-chain fatty acid methyl esters and producing the medium-chain or long-chain alkane terminal oxidation products. In order to promote the entry of medium-chain or long-chain alkanes into cells, the recombinant microorganism of the present invention may further express an alkane transporter. The AlkL protein of P. putida GPol is an exemplary alkane transporter used in this example to investigate the effects of alkane transporter expression on the uptake of medium-chain or long-chain alkanes or medium-chain or long-chain fatty acid methyl esters by the recombinant microorganisms. The AlkL protein is cytotoxic and its expression should be tightly regulated. […] At 6 hours after the induction, the mean fluorescence intensity of E. coli cells was measured by flow cytometry.\nThe AlkL protein was also tested for the ability to promote the uptake of various medium-chain or long-chain alkanes and methyl laurate by microbial cells. […] After 3 hours of incubation, 1% (v/v) n-octane, n-decane, n-dodecane, n-tetradecane, n-hexadecane, n-octadecane, or methyl laurate was added to induce the expression of red fluorescent protein, and the mean fluorescence intensity and fluorescence distribution of E. coli cells were measured by flow cytometry 6 hours after the induction. […]"}, "[4]": {"system": "CYP153A operon", "experiment": "n-Octane-induced 1-octanol production by recombinant E. coli carrying pBBR1-CYPLR plasmid (gas chromatography)", "settings": "1% (v/v) n-octane; 12 h after induction; pBBR1-CYPLR vs pBBR1-alkR plasmid; FIG. 13", "protocol": "The medium-chain or long-chain alkane terminal oxidation product in the sample was analyzed qualitatively and quantitatively by gas chromatography. The analysis of alkanols and alkanediols was described as follows, with 1-octanol taken as example. 10 mg of 1,8-octanediol was added as an internal standard to 10 mL of the collected bacterial culture, and the mixture was extracted twice with double volumes of ethyl acetate. […] The obtained product was analyzed for composition by Varian CP-3800 gas chromatograph equipped with a DB-5 column and a flame ionization detector (FID). […] Alkanoic acids, alkanedioic acids, or alcohol acids were analyzed similarly as described above. In one embodiment of the present invention, 12-hydroxydodecanoic acid was analyzed using dodecanol as the internal standard.\nIt was studied whether the recombinant E. coli carrying the reconstructed CYP153A operon from M. aquaeoli VT8 would be induced to express the cytochrome P450 with oxidative activity and produce medium-chain or long-chain alkane terminal oxidation products in response to medium-chain or long-chain alkanes. […] At 12 hours after the induction, the production of 1-octanol in the bacterial culture was analyzed by gas chromatography."}},
  "data": [
    {"smiles": "CCCCCCCCCCCC(=O)OC", "note": "[methyl laurate]", "values": [
      {"measurement": "expression of red fluorescent protein (mean fluorescence intensity) relative to control group", "setting": "[1]; 1% (v/v) inducer, 0-12 h, recombinant E. coli JM109, vs untreated control, FIG. 8", "result": "induced the expression of red fluorescent protein"},
      {"measurement": "whole-cell carbon monoxide difference spectrum (400-500 nm)", "setting": "[2]; 12 h, FIGS. 12A-12B", "result": "absorption peak at about 450 nm"},
      {"measurement": "CYP153A expression by SDS-PAGE", "setting": "[2]; 12 h after induction, FIG. 11", "result": "expressed the CYP153A"},
      {"measurement": "expression of red fluorescent protein in control groups (mock vector) vs non-induced groups", "setting": "[3]; psb3C5-rha mock vector, 0.01% rhamnose 3 h then 1% (v/v) inducer 6 h, FIG. 15", "result": "induce significantly more expression of the red fluorescent protein"}
    ]},
    {"smiles": "CCCCCCCCCCCCO", "note": "[1-dodecanol]", "values": [
      {"measurement": "inhibition of n-dodecane-induced red fluorescent protein expression", "setting": "[1]; 0.1% or 1% (v/v) 1-dodecanol added with 1% n-dodecane inducer, 6 and 12 h, FIG. 10", "result": "did not inhibit the expression of red fluorescent protein"}
    ]},
    {"smiles": "C[C@H](O)[C@H](O)[C@@H](O)[C@@H](O)C=O", "note": "[rhamnose, reference compound]", "values": [
      {"measurement": "expression of red fluorescent protein (mean fluorescence intensity) compared to no rhamnose addition", "setting": "[3]", "result": "induced significantly more expression of the red fluorescent protein"}
    ]},
    {"smiles": "CCCCCCCCCCCCCC", "note": "[n-tetradecane]", "values": [
      {"measurement": "expression of red fluorescent protein (mean fluorescence intensity) compared to no rhamnose addition", "setting": "[3]", "result": "induced significantly more expression of the red fluorescent protein"},
      {"measurement": "expression of red fluorescent protein in E. coli cells expressing both AlkL and AlkR proteins vs control groups", "setting": "[3]; psb3C5-rha-weak alkL plasmid, 0.01% rhamnose 3 h then 1% (v/v) alkane 6 h, FIG. 15", "result": "more effective in inducing the expression of red fluorescent protein"}
    ]},
    {"smiles": "CCCCCCCC", "note": "[n-octane]", "values": [
      {"measurement": "number of E. coli cells induced to express red fluorescent protein (fluorescence distribution histograms)", "setting": "[1]; 1% (v/v) alkane, 0 vs 6 h after induction, FIGS. 9A-9F", "result": "more E. coli cells were induced to express the red fluorescent protein"},
      {"measurement": "induction of cytochrome P450 with oxidative activity (1-octanol production, gas chromatogram)", "setting": "[4]", "result": "additional peak at the retention time of 1-octanol"}
    ]}
  ]
}
